Where a SMILES comes first, the peptide text is derived from it. [ ]: non-standard residue; d: D form. The star is where a group is joined. Sta = CC(C)C[C@H](N)[C@@H](O)CC(=O)O; Isovaleryl = CC(C)CC(=O)*
Tests used:
May1 = target: T1, May1 (Cryptococcus neoformans, UniProt J9VS02); assay: May1 Ki determination, fluorometric assay with IQ-2 substrate; assay type: biochemical
T1 sequence (J9VS02 80-434 limits assumed): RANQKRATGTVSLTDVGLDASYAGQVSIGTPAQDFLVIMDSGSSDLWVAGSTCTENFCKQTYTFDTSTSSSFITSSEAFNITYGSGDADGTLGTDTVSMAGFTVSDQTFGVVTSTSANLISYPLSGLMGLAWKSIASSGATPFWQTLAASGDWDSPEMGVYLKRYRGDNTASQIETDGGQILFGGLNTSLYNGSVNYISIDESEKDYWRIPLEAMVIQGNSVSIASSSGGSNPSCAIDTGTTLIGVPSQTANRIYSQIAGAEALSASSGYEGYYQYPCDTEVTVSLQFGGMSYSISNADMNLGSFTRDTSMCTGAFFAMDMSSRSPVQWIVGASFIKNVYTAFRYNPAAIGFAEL

[1] = system: C. neoformans strains H99 and may1Δ; assay: Yeast culture activity assay; assay type: cell-based, Cryptococcus neoformans; details: for terminal culture density of yeast: 48 h, 0.1, 1.0, 10 or 50 μM compound
[2] = target: HIV-1 Pr drug resistance-associated mutants; details: cited from earlier work
HIV-1 Pr wild-type = details: cited from earlier work
HepG2 = assay: Cytotoxicity, CellTiter-Glo 2.0 Cell Viability Assay; assay type: cell-based, human; details: HepG2 cell line; comparators darunavir, amprenavir, indinavir (ref 40)

## CC(C)CC(=O)N[C@H](C(=O)N[C@H](C(=O)N[C@@H](CC(C)C)[C@@H](O)CC(=O)N[C@@H](C)C(=O)N[C@@H](CC(C)C)[C@@H](O)CC(=O)O)C(C)C)C(C)C [PepA, pepstatin A] (Isovaleryl-VV[Sta]A[Sta]-OH)
May1
  Ki: 1.3 ± 0.1 nM

## CC(=O)N[C@H](C(=O)N[C@H](C(=O)N[C@@H](CC(C)C)[C@@H](O)CC(=O)N[C@@H](C)C(=O)N[C@@H](CC(C)C)[C@@H](O)CC(=O)O)C(C)C)C(C)C [acetyl pepstatin] (Ac-VV[Sta]A[Sta]-OH)
May1
  Ki: 3.3 ± 0.1 nM

## CCCC[C@H](NC(=O)[C@H](CCC(=O)O)NC(=O)C[C@H](O)[C@H](Cc1ccccc1)NC(=O)OCc1ccccc1)C(N)=O [Compound 4a, (S)-5-(((S)-1-amino-1-oxohexan-2-yl)amino)-4-((3S,4S)-4-(((benzyloxy)carbonyl)amino)-3-hydroxy-5-phenylpentanamido)-5-oxopentanoic acid]
[1]; H99, YNB minimal medium
  terminal culture density of yeast: dose-dependent reductions in terminal culture density

## NC(=O)[C@H](CCc1ccccc1)NC(=O)[C@H](CCC(=O)O)NC(=O)C[C@H](O)[C@H](Cc1ccccc1)NC(=O)OCc1ccccc1 [Compound 13a, (S)-5-(((S)-1-amino-1-oxo-4-phenylbutan-2-yl)amino)-4-((3S,4S)-4-(((benzyloxy)carbonyl)amino)-3-hydroxy-5-phenylpentanamido)-5-oxopentanoic acid]
[2]
  Ki for three drug resistance-associated HIV-1 Pr mutants: 0.024 to 0.32 nM
HIV-1 Pr wild-type
  inhibition of wild-type HIV-1 Pr (in words): potent, subnanomolar inhibitor
HepG2
  cytotoxicity compared with clinically used protease inhibitors: on par with or lower than that of clinically used protease inhibitors
[1]; H99, YNB minimal medium, 48 h, 50 μM
  terminal culture density of yeast at 50 μM: nearly phenocopying the may1Δ mutant
[1]; H99, YNB minimal medium
  terminal culture density of yeast: dose-dependent reductions in terminal culture density
[1]; H99, unbuffered YNB, 50 μM
  culture density during logarithmic phase growth: achieved similar densities to 1b- or DMSO-treated controls during the logarithmic phase growth
[1]; YNB with 50 mM MES, pH 6.5, 50 μM
  saturation density phenotype in buffered medium: eliminated the saturation density phenotype
[1]; may1Δ strain, unbuffered YNB, 50 μM
  culture density of may1Δ yeast: did not further reduce culture densities during either the logarithmic or the stationary phase

## CC(C)[C@H](NC(=O)[C@H](CCC(=O)O)NC(=O)C[C@H](O)[C@H](Cc1ccccc1)NC(=O)OCc1ccccc1)C(N)=O [Compound 3a, (S)-5-(((S)-1-amino-3-methyl-1-oxobutan-2-yl)amino)-4-((3S,4S)-4-(((benzyloxy)carbonyl)amino)-3-hydroxy-5-phenylpentanamido)-5-oxopentanoic acid]
[1]; H99, YNB minimal medium
  terminal culture density of yeast: dose-dependent reductions in terminal culture density

From paper PMC8165695 (Journal of Medicinal Chemistry, 2021)
